Experimental data reported in US20230174510A1, “N-acetylserotonin Derivatives as TrkB Activators and Uses Thereof” (Emory University, priority 2020, published 2023).
Entries after “also recorded” stand apart in the source; their conditions may differ.

Experiments:
TrkB [1] = biological target: T1, TrkB (Rattus norvegicus, UniProt Q63604); test: TrkB phosphorylation, western blot, primary rat cortical neuronal culture; format: cell-based; parameters: key: “+”=increased phosphorylation; “−”=decreased phosphorylation; “nc”=no change
T1 construct: in primary cultures of rat cortical neurons; endogenous in cells; host or cells: primary rat cortical neurons
Description: (§1) Different concentrations of 2-fluoro-N-(2-(5-hydroxy-1H-indol-3-yl)ethyl)nicotinamide (analogue 147) were tested in NIH-3T3-TrkB cells. Cells at 70-80% confluency were serum deprived overnight and then stimulated with different concentrations of analogue 147 for 30 minutes. Protein extract was collected and subjected for western blot analysis. […] “+”=increased phosphorylation; “−”=decreased phosphorylation; “nc”=no change.
(§2) To screen the analogs for biological activity, the phosphorylation state of TrkB and AKT, a downstream signaling mediator of TrkB activation, was examined in cultured NIH/3T3 cells expressing human TrkB and in primary cultures of rat cortical neurons (see FIG. 5).

AKT [2] = test: AKT phosphorylation, western blot, primary rat cortical neuronal culture; format: cell-based; parameters: key: “+”=increased phosphorylation; “−”=decreased phosphorylation; “nc”=no change
Description: as §1, §2

AKT [3] = test: AKT phosphorylation, western blot, NIH 3T3 cells expressing human TrkB; format: cell-based; parameters: key: “+”=increased phosphorylation; “−”=decreased phosphorylation; “nc”=no change; details: NIH 3T3 - TrkB cells
Description: as §1, §2

TrkB [4] = biological target: T2, TrkB (Homo sapiens, UniProt Q16620); test: TrkB phosphorylation, western blot, NIH 3T3 cells expressing human TrkB; format: cell-based; parameters: expressed in transfected cells; host or cells: NIH/3T3 (NIH-3T3-TrkB) cells; key to pTrkB/β-actin: “+”=increased phosphorylation; “−”=decreased phosphorylation; “nc”=no change; details: for pTrkB/β-actin: NIH 3T3 - TrkB cells, western blot; for concentration of best TrkB activation / TrkB activation, concentration dependence: NIH-3T3-TrkB cells, stimulated 30 minutes; for concentration of best TrkB activation: serum deprived overnight
Description: as §1, §2
Target sequence in this assay (Q16620 32-822): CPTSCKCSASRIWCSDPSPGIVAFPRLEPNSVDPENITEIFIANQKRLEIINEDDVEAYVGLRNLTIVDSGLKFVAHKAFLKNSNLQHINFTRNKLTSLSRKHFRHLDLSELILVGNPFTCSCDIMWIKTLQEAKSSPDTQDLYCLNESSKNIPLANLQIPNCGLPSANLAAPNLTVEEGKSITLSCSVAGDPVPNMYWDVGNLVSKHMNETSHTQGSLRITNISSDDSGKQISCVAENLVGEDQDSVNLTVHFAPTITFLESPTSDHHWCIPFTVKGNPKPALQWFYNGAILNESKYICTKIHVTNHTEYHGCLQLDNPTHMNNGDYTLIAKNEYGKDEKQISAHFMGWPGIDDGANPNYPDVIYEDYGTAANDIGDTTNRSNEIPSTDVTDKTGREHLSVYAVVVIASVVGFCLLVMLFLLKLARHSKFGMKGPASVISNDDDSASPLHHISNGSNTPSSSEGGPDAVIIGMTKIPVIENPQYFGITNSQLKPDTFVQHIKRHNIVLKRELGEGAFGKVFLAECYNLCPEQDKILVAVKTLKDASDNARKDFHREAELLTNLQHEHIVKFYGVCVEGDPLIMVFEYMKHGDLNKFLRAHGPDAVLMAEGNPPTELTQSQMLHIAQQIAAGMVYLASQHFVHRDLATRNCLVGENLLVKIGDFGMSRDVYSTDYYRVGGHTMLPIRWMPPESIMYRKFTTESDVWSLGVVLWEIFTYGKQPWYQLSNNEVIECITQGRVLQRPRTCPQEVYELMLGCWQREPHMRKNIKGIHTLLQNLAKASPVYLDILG

[5] = system: blast-induced loss of visual function; test: Mouse blast injury (TBI) model, loss of visual function; format: in vivo
Description: Mice were exposed to a single 70 psi blast directed at the right side of the head. HIOC or vehicle was administered 15 minutes after exposure to blast, and daily for the next six days. A sham control group was included for comparison. Visual function was tested 1 week after blast.
(§3) This disclosure contemplates pharmaceutical treatments for trauma-induced vision loss that can be administered on the battlefield or in field hospitals during the critical period before irreversible neuronal degeneration and vision loss occur. A mouse blast injury model has been used to characterize the effects of blast injury to the eye and visual system. Blast injury results in (1) inflammatory responses (microglial activation and reactive gliosis) and activation of the innate and acquired immune system; (2) loss of visual function (contrast sensitivity and visual acuity); (3) thinning of the nerve fiber layer of the retina, and (4) axon loss in the optic nerve. An N-acetylserotonin derivative, N-[2-(5-hydroxy-1H-indol-3-yl)ethyl]-2-oxopiperidine-3-carboxamide (HIOC), effectively mitigates vision loss when administered within several hours after blast exposure (FIG. 1). Daily administration for one week reduces or prevents blast-induced loss of visual function for at least 4 months, mitigating the progressive vision loss that occurs over time in the absence of treatment. This therapeutic effect of HIOC is mediated by activation of TrkB, the cognate receptor for Brain-Derived Neurotrophic Factor (BDNF). Both N-acetylserotonin and HIOC activate TrkB and have neuroprotective properties. The pharmacokinetic characteristics of HIOC are desirable for an in vivo treatment because TrkB is activated for up to 16 hours following a single injection.
The ability of HIOC to mitigate the loss of visual function resulting from blast directed at the head was examined (FIG. 1). Mice were exposed to a single blast of ˜70 psi directed on the right side of the head. Contrast sensitivity was measured 1 week after blast.

TrkB [6] = biological target: T3, TrkB (Mus musculus, UniProt P15209); test: TrkB activation in retina and brain after systemic administration; format: in vivo
T3 construct: from tissue; host or cells: retina (ganglion cells) and brain
Description: as §3, with “The pharmacokinetic characteristics of HIOC are desirable for an in vivo treatment because TrkB is activated for up to 16 hours following a single injection.” left out

[7] = system: kainic acid-induced neuronal cell death; details: TrkB-dependent; cited from earlier work
photoreceptor damage = details: cited from earlier work
[8] = system: brain damage from subarachnoid hemorrhage; details: cited from earlier work
TrkB [9] = biological target: T2, TrkB; details: cited from earlier work
Target sequence in this assay (Q16620 32-822, species assumed): as the sequence (Q16620 32-822) above

T1 sequence (Q63604 32-821): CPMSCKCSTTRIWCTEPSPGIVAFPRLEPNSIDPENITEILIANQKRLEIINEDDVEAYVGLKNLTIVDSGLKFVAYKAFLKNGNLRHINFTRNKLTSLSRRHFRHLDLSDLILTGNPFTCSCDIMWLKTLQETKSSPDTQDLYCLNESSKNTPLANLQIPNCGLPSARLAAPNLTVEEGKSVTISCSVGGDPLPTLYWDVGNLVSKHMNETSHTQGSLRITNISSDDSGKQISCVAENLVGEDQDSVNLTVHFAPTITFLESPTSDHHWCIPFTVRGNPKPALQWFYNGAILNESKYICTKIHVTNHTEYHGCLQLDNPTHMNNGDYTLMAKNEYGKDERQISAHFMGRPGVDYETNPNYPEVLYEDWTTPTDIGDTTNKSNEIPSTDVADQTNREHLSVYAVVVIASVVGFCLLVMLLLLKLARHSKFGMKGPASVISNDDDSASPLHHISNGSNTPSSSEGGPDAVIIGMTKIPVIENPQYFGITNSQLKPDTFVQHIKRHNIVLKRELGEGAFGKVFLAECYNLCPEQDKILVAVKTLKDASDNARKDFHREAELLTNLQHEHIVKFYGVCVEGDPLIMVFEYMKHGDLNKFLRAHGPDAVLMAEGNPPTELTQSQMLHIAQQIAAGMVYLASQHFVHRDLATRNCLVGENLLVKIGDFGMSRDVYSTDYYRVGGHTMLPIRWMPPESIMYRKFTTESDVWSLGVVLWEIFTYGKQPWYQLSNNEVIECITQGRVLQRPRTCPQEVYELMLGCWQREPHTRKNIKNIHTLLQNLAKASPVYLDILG
T3 sequence (P15209 32-821): as the sequence (Q63604 32-821) above, with M3T, T9S, T10A, I32V, K63R, G84S, T153M, I185L, T394S, N770S counted along it

Molecule: O=C(NCCc1c[nH]c2ccc(O)cc12)c1ccccc1 [Analogue 83, N-(2-(5-hydroxy-1H-indol-32-yl)ethyl)benzamide]
- pTrkB/β-actin (TrkB [1]): +
- pAkt/β-actin (AKT [2]): +
- pAkt/β-actin (AKT [3]): +
- pTrkB/β-actin (TrkB [4]): +

Molecule: O=C(NCCc1c[nH]c2ccc(O)cc12)c1cccnc1 [Analogue 85, N-(2-(5-hydroxy-1H-indol-3-yl)ethyl)nicotinamide]
- pTrkB/β-actin (TrkB [1]): +
- pAkt/β-actin (AKT [2]): +
- pAkt/β-actin (AKT [3]): nc
- pTrkB/β-actin (TrkB [4]): nc

Molecule: O=C(NCCc1c[nH]c2ccc(O)cc12)c1ccccn1 [Analogue 105, N-(2-(5-hydroxy-1H-indol-3yl)ethyl)picolinamide]
- pTrkB/β-actin (TrkB [1]): +
- pAkt/β-actin (AKT [2]): +
- pAkt/β-actin (AKT [3]): +
- pTrkB/β-actin (TrkB [4]): −

Molecule: O=C(NCCc1c[nH]c2ccc(O)cc12)c1ccncc1 [Analogue 107, N-(2-(5-hydroxy-1H-indol-3-yl)ethyl)isonicotinamide]
- pTrkB/β-actin (TrkB [1]): +
- pAkt/β-actin (AKT [2]): +
- pAkt/β-actin (AKT [3]): +
- pTrkB/β-actin (TrkB [4]): +

Molecule: O=C(NCCc1c[nH]c2ccc(O)cc12)c1ccc(F)cn1 [Analogue 112, 5-fluoro-N-(2-(5-hydroxy-1H-indol-3yl)ethyl)picolinamide]
- pTrkB/β-actin (TrkB [1]): +
- pAkt/β-actin (AKT [2]): −

Molecule: O=C(NCCc1c[nH]c2ccc(O)cc12)c1ccncc1F [Analogue 114, 3-fluoro-N-(2-(5-hydroxy-1H-indol-3-yl)ethyl)isonicotinamide]
- pTrkB/β-actin (TrkB [1]): nc
- pAkt/β-actin (AKT [2]): nc

Molecule: O=C(NCCc1c[nH]c2ccc(O)cc12)c1cncc(F)c1 [Analogue 127, 5-Fluoro-N-(2-(5-hydroxy-1H-indol-3-yl)ethyl)nicotinamide]
- pTrkB/β-actin (TrkB [1]): +
- pAkt/β-actin (AKT [2]): +
- pAkt/β-actin (AKT [3]): −
- pTrkB/β-actin (TrkB [4]): +
- concentration of best TrkB activation (TrkB [4]): 100 nM
- TrkB activation, concentration dependence (TrkB [4]): higher activity at low nanomolar concentrations than at 1 μM

Molecule: O=C1NCCCC1C(=O)NCCc1c[nH]c2ccccc12 (stereo not shown) [Analogue 145, N-(2-(1H-indol-3-yl)ethyl)-2-oxopiperidine-3-carboxamide]
- pTrkB/β-actin (TrkB [1]): +
- pAkt/β-actin (AKT [2]): +
- pAkt/β-actin (AKT [3]): +
- pTrkB/β-actin (TrkB [4]): +

Molecule: O=C(NCCc1c[nH]c2ccc(O)cc12)c1cccnc1F [Analogue 147, 2-fluoro-N-(2-(5-hydroxy-1H-indol-3yl)ethyl)nicotinamide]
- pTrkB/β-actin (TrkB [1]): +
- pAkt/β-actin (AKT [2]): +
- pAkt/β-actin (AKT [3]): +
- pTrkB/β-actin (TrkB [4]): +
- concentration of best TrkB activation (TrkB [4]): 10 nM
- TrkB activation, concentration dependence (TrkB [4]): higher activity at low nanomolar concentrations than at 1 μM

Molecule: COc1ccc2[nH]cc(CCNC(=O)C3CCCNC3=O)c2c1 (stereo not shown) [Analogue 149, N-(2-(5-methoxy-1H-indol-3-yl)ethyl)-2-oxopiperidine-3-carboxamide]
- pTrkB/β-actin (TrkB [1]): +
- pAkt/β-actin (AKT [2]): +
- pAkt/β-actin (AKT [3]): +
- pTrkB/β-actin (TrkB [4]): −

Molecule: CN1CCCC(C(=O)NCCc2c[nH]c3ccc(O)cc23)C1=O (stereo not shown) [Analogue 151, N-(2-(5-hydroxy-1H-indol-3-yl)ethyl)-1-methyl-2-oxopiperidine-3-carboxamide]
- pTrkB/β-actin (TrkB [1]): +
- pAkt/β-actin (AKT [2]): −

Molecule: CC1(C(=O)NCCc2c[nH]c3ccc(O)cc23)CCCNC1=O (stereo not shown) [Analogue 170, N-(2-(5-hydroxy-1H-indol-3-yl)ethyl)-3-methyl-2-oxopiperidine-3-carboxamide]
- pTrkB/β-actin (TrkB [1]): +
- pAkt/β-actin (AKT [2]): nc
- pAkt/β-actin (AKT [3]): +
- pTrkB/β-actin (TrkB [4]): +

Molecule: O=C1NCCCC1C(=O)NCCc1c[nH]c2ccc(O)cc12 (stereo not shown) [HIOC, N-[2-(5-hydroxy-1H-indol-3-yl)ethyl]-2-oxopiperidine-3-carboxamide]
- pTrkB/β-actin (TrkB [1]): +
- pAkt/β-actin (AKT [2]): +
- pAkt/β-actin (AKT [3]): +
- effects on blast-induced retinal and optic nerve damage ([5]; blast exposure): reduces vision loss, microglial activation in the retina, nerve fiber layer thinning, and the optic nerve axon loss
- duration of protection from blast-induced loss of visual function ([5]; daily administration for one week): at least 4 months
- TBI induced decrease in contrast sensitivity ([5]; mice, single ~70 psi blast, 80 mg/kg, measured 1 week after blast): completely prevented
- duration of TrkB activation (TrkB [6]; following a single injection): up to 16 hours
- blood-retinal and blood-brain barrier penetration (TrkB [6]; systemic administration): crosses the blood-retinal and blood-brain barriers
- kainic acid-induced neuronal cell death / apoptosis [7]: inhibits neuronal apoptosis; also recorded: reduces kainic acid-induced neuronal cell death
- photoreceptor damage from toxic light exposure (photoreceptor damage): reduces photoreceptor damage
- brain damage from subarachnoid hemorrhage [8]: attenuates brain damage
- TrkB activation (TrkB [9]): activate TrkB; also recorded: selectively activates TrkB
- pTrkB/β-actin (TrkB [4]): +

Molecule: CC(=O)NCCc1c[nH]c2ccc(O)cc12 [N-acetylserotonin]
- TrkB activation (TrkB [9]): activate TrkB

B1: BDNF: Brain-Derived Neurotrophic Factor; TrkB is its cognate receptor (protein, UniProt P23560 19-247, looked up)
Neurotrophic factor BDNF …: APMKEANIRGQGGLAYPGVRTHGTLESVNGPKAGSRGLTSLADTFEHVIEELLDEDQKVRPNEENNKDADLYTSRVMLSSQVPLEPPLLFLLEEYKNYLDAANMSMRVRRHSDPARRGELSVCDSISEWVTAADKKTAVDMSGGTVTVLEKVPVSKGQLKQYFYETKCNPMGYTKEGCRGIDKRHWNSQCRTTQSYVRALTMDSKKRIGWRFIRIDTSCVCTLTIKRGR
- pTrkB/β-actin (TrkB [1]): +
- pAkt/β-actin (AKT [2]): +
- pAkt/β-actin (AKT [3]): +
- pTrkB/β-actin (TrkB [4]): +
